The target of experiment [1] is T1, BSA (Bos taurus, UniProt P02769).
T1 construct: purchased Sigma-Aldrich A3059
Description: Real-time monitoring of chymotrypsin digestion of BSA using epicocconone. The experiment is classed as biochemical, bovine. The note with it: bicine pH 7.8, 30° C., chymotrypsin 1:30. The procedure:
• 1. Chymotrypsin digestion was carried out in bicine buffer. • 2. BSA was prepared in 10 mg/mL in 50 mM bicine buffer. • 3. One hundred microliter of the BSA sample was used for chymotrypsin digestion.
• 1. The BSA sample (100 μL) was reduced by adding 5 μL of DTT stock and heating (80° C.) for 10 min. • 2. The sample was alkylated by adding the iodoacetamide (4 μL) stock at room temperature for 45 min-1 hr. • 3. The remaining iodoacetamide of the sample was neutralized by adding DTT (20 μL) and incubating room temp for 45 min-1 hr.
• 1. The reduced and denatured BSA sample from 2.2 was diluted 10-fold in 50 mM bicine buffer (25 μL+225 μL bicine buffer). BSA molar concentration was calculated to be approx. 6 μM. • 2. One hundred microliter of the sample (step 1) was prepared in duplicates and added to a microtiter plate. Controls included a bicine-based digestion buffer, a chymotrypsin sample only and an undigested BSA sample (no chymotrypsin). • 3. Epicocconone stock solution was diluted 100-fold in 50 mM bicine and 100 μL added to each well. The final concentration epicocconone was 12 μM. At this point in time, it required approximately 10 min to get appropriate FluoStar setting conditions. • 4. 2 μL of CaCl2 was added • 5. […] Fluorescence development was monitored in real time every 2 minutes up to 6 hours using FluoStar (Ex/Em=540/630−12). […]

Experiment [2] concerns the target T1, BSA. Description: SDS-PAGE validation of BSA proteolysis in the presence of different fluorophores (Example 7). The class given is biochemical, bovine. To be noted: after 120 minutes. From the text:
The normalised data were used for Prism analysis for obtaining the rate constants. In each case, the protein with fluorophore (open squares) is fitted to a single phase exponential decay (Y=span*exp(−kX)+plateau) and the value for k used as the fixed value for k1 in a two phase exponential decay (Y=span1*exp(−k1X)+span2*exp(−k2X)+plateau) for the protein plus papain (open circles). Through this method it was possible to measure the rate constants for hydrolysis and predict the time point for complete hydrolysis. […] It can be seen from this figure that the bands associated with the protein have disappeared after 120 minutes and that only a faint band for residual papain or trypsin can be seen. In some cases there are also some larger peptide fragments remaining after digestion that are resistant to further hydrolysis.

This is an account of results in patent US20090111104A1, “Method for Monitoring Hydrolytic Activity” (Fluorotechnics Pty Limited, priority 2005, published 2009).

T1 sequence (P02769 25-607): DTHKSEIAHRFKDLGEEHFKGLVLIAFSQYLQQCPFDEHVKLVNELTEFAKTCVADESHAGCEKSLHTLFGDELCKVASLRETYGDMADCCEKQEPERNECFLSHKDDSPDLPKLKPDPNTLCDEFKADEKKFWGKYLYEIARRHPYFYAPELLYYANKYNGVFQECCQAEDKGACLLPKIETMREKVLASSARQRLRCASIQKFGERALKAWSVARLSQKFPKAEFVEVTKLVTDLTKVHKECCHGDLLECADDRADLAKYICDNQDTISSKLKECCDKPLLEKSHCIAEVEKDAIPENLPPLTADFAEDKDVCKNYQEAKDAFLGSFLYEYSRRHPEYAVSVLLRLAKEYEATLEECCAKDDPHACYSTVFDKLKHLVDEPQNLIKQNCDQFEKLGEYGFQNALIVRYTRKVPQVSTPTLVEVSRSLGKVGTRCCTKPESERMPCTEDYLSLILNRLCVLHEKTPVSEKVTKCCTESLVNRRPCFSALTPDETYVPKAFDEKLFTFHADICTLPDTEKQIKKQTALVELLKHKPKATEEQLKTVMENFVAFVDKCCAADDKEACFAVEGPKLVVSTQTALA

In the case of chymotrypsin, the “apparent first order rate constant” value at BSA [1] worked out at 0.0447 min⁻¹.

B1: papain: Non-specific cysteine protease, Sigma-Aldrich P4762 (protein, UniProt P00784 134-345, looked up)
Papain: IPEYVDWRQKGAVTPVKNQGSCGSCWAFSAVVTIEGIIKIRTGNLNEYSEQELLDCDRRSYGCNGGYPWSALQLVAQYGIHYRNTYPYEGVQRYCRSREKGPYAAKTDGVRQVQPYNEGALLYSIANQPVSVVLEAAGKDFQLYRGGIFVGPCGNKVDHAVAAVGYGPNYILIKNSWGTGWGENGYIRIKRGTGNSYGVCGLYTSSFYPVKN
On to B1, for which the “digestion of BSA by SDS-PAGE” value in the experiment with BSA [2] is reported as “complete digestion”.
